Experimental data as given in ChEMBL document CHEMBL1148480, “Structure-activity studies of orexin a and orexin B at the human orexin 1 and orexin 2 receptors led to orexin 2 receptor selective and orexin 1 receptor preferring ligands” (J Med Chem, 2004).
pEC50: −log10 of the molar value. Residues, ends and D or L forms follow the SMILES beside them.

Assays:
Orexin receptor type 2 = biological target: T1, Orexin receptor type 2 (Homo sapiens, UniProt O43614); experiment: Effective agonist concentration to the human Orexin receptor type 2 was determined using the Xlfit program; type: functional
T1 sequence (O43614 whole entry): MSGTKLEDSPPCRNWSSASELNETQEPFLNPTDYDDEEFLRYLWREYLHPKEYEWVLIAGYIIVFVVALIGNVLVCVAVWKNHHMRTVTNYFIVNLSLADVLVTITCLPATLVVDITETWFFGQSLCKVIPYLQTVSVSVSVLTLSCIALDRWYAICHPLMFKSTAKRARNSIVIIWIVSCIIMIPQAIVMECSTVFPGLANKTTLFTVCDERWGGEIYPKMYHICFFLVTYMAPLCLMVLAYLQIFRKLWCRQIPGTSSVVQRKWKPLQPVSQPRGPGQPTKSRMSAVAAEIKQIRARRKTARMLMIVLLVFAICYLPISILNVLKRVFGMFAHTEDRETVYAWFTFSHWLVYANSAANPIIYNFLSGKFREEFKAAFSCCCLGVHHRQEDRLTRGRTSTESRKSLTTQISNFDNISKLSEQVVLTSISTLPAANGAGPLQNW

[1] = biological target: T2, Orexin/Hypocretin receptor type 1 (Homo sapiens, UniProt O43613); experiment: Effective agonist concentration to human orexin receptor type 1 determined using the Xlfit program; type: functional
T2 sequence (O43613 whole entry): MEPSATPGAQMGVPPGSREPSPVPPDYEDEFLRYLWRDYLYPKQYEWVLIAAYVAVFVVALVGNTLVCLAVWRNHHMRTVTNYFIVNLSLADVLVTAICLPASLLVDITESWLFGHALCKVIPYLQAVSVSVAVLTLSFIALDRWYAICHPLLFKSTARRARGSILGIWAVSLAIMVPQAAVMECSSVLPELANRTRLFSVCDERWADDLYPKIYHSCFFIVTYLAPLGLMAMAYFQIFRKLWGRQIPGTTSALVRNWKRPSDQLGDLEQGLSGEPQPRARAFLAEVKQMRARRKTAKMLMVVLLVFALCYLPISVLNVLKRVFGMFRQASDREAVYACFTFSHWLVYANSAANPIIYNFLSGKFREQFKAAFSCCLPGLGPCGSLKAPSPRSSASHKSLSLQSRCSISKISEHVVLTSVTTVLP

Structure (SMILES) | pEC50 (Orexin receptor type 2) | pEC50 [1]
CC[C@H](C)[C@H](NC(=O)CNC(=O)[C@H](C)NC(=O)[C@H](C)NC(=O)[C@H](Cc1cnc[nH]1)NC(=O)[C@@H](N)CC(N)=O)C(=O)N[C@@H](CC(C)C)C(=O)N[C@H](C(=O)N[C@@H](CC(C)C)C(=O)O)[C@@H](C)O (H-NHAAGILTL-OH) | < 3.00 | < 3.00
CC(C)C[C@H](NC(=O)CNC(=O)[C@@H]1CCCN1C(=O)[C@@H]1CCCN1C(=O)CNC(=O)[C@H](CO)NC(=O)[C@@H](N)CCCN=C(N)N)C(=O)N[C@@H](CCC(N)=O)C(=O)NCC(=O)N[C@@H](CCCN=C(N)N)C(=O)N[C@@H](CC(C)C)C(=O)N[C@@H](CCC(N)=O)C(=O)N[C@@H](CCCN=C(N)N)C(=O)N[C@@H](CC(C)C)C(=O)N[C@@H](CC(C)C)C(=O)N[C@@H](CCC(N)=O)C(=O)O (H-RSGPPGLQGRLQRLLQ-OH) | < 3.00 | < 3.00
CC[C@H](C)[C@H](NC(=O)CNC(=O)[C@H](C)NC(=O)[C@H](C)NC(=O)[C@@H](N)Cc1cnc[nH]1)C(=O)N[C@@H](CC(C)C)C(=O)N[C@H](C(=O)N[C@@H](CC(C)C)C(=O)O)[C@@H](C)O (H-HAAGILTL-OH) | < 3.00 | 

Molecules with a higher pEC50 (Orexin receptor type 2), results first:

pEC50 (Orexin receptor type 2) | pEC50 [1] | Structure (SMILES)
5.91 |  | CC[C@H](C)[C@H](NC(=O)CNC(=O)[C@H](C)NC(=O)[C@H](C)NC(=O)[C@H](Cc1cnc[nH]1)NC(=O)[C@H](CC(N)=O)NC(=O)CNC(=O)[C@H](CO)NC(=O)[C@H](C)NC(=O)[C@H](CCC(N)=O)NC(=O)[C@H](CC(C)C)NC(=O)[C@H](CC(C)C)NC(=O)[C@H](CCCNC(=N)N)NC(=O)[C@H](CCC(N)=O)NC(=O)[C@H](CC(C)C)NC(=O)[C@H](CCCNC(=N)N)NC(=O)CNC(=O)[C@@H](N)CCC(N)=O)C(=O)N[C@@H](CC(C)C)C(=O)N[C@H](C(=O)N[C@@H](CCSC)C(=O)O)[C@@H](C)O (H-QGRLQRLLQASGNHAAGILTM-OH)
6.55 |  | CC[C@H](C)[C@H](NC(=O)CNC(=O)[C@H](C)NC(=O)[C@H](C)NC(=O)[C@H](Cc1c[nH]cn1)NC(=O)[C@H](CC(N)=O)NC(=O)CNC(=O)[C@H](CO)NC(=O)[C@H](C)NC(=O)[C@H](CCC(N)=O)NC(=O)[C@H](CC(C)C)NC(=O)[C@H](CC(C)C)NC(=O)[C@H](CCCN=C(N)N)NC(=O)[C@@H]1CCCN1C(=O)[C@H](CC(C)C)NC(=O)[C@H](CCCN=C(N)N)NC(=O)CNC(=O)[C@H](CCC(N)=O)NC(=O)[C@H](CC(C)C)NC(=O)CN)C(=O)N[C@@H](CC(C)C)C(=O)N[C@H](C(=O)N[C@@H](CCSC)C(=O)O)[C@@H](C)O (stereo in doubt; form 1)
7.22 |  | CC[C@H](C)[C@H](NC(=O)CNC(=O)[C@H](C)NC(=O)[C@H](C)NC(=O)[C@H](Cc1cnc[nH]1)NC(=O)[C@H](CC(N)=O)NC(=O)CNC(=O)[C@H](CO)NC(=O)[C@H](C)NC(=O)[C@H](CCC(N)=O)NC(=O)[C@H](CC(C)C)NC(=O)[C@H](CC(C)C)NC(=O)[C@H](CCCNC(=N)N)NC(=O)[C@H](CCC(N)=O)NC(=O)[C@H](CC(C)C)NC(=O)[C@H](CCCNC(=N)N)NC(=O)CNC(=O)[C@H](CCC(N)=O)NC(=O)[C@@H]1CCCN1C(=O)CN)C(=O)N[C@@H](CC(C)C)C(=O)N[C@H](C(=O)N[C@@H](CCSC)C(=O)O)[C@@H](C)O (H-GPQGRLQRLLQASGNHAAGILTM-OH)
6.10 |  | CC[C@H](C)[C@H](NC(=O)CNC(=O)[C@H](C)NC(=O)[C@H](C)NC(=O)[C@H](Cc1cnc[nH]1)NC(=O)[C@H](CC(N)=O)NC(=O)CNC(=O)[C@H](CO)NC(=O)[C@H](C)NC(=O)[C@H](CCC(N)=O)NC(=O)[C@H](CC(C)C)NC(=O)[C@H](CC(C)C)NC(=O)[C@H](CCCNC(=N)N)NC(=O)[C@H](CCC(N)=O)NC(=O)[C@@H]1CCCN1C(=O)[C@H](CCCNC(=N)N)NC(=O)CNC(=O)[C@H](CCC(N)=O)NC(=O)[C@H](CC(C)C)NC(=O)CN)C(=O)N[C@@H](CC(C)C)C(=O)N[C@H](C(=O)N[C@@H](CCSC)C(=O)O)[C@@H](C)O (H-GLQGRPQRLLQASGNHAAGILTM-OH)
